Target: T1, recombinant human sEH (HsEH) (Homo sapiens, UniProt P34913)
T1 sequence (P34913 1-555): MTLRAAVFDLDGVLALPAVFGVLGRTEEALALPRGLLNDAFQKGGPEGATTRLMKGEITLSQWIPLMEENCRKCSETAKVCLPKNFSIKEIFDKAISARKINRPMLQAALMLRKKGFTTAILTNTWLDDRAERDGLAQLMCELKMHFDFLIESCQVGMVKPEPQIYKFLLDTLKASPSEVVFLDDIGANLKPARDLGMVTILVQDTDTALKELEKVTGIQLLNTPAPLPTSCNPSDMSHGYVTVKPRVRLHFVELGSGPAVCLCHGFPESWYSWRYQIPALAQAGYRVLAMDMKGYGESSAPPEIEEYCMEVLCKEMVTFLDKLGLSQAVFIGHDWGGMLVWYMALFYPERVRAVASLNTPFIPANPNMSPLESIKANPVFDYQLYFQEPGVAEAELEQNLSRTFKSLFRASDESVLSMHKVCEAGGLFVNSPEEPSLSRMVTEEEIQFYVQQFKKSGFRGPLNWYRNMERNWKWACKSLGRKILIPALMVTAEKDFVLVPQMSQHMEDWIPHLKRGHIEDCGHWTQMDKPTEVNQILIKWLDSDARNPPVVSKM
Assay: biochemical
Details: LLE = pIC50-cLogP

In order of falling “LLE (ligand lipophilicity efficiency)” value:
1. C[C@]12C[C@@H]3C[C@](C)(C1)C[C@@](NC(=O)Nc1ccc(CN4CCCC(C(=O)NC(CO)(CO)CO)C4)cc1F)(C3)C2 (stereo partly drawn) [D8, N-(1,3-Dihydroxy-2-(hydroxymethyl)propan-2-yl)-1-(4-(3-((1r,3R,5S,7r)-3,5-dimethyladamantan-1-yl)ureido)-3-fluorobenzyl)piperidine-3-carboxamide]  7.992
2. C[C@]12C[C@@H]3C[C@](C)(C1)C[C@@](NC(=O)Nc1ccc(CN4CCCC(C(=O)O)C4)cc1F)(C3)C2 (stereo partly drawn) [D, 1-(4-(3-((1r,3R,5S,7r)-3,5-Dimethyladamantan-1-yl)ureido)-3-fluorobenzyl) piperidine-3-carboxylic acid]  7.656
3. C[C@]12C[C@@H]3C[C@](C)(C1)C[C@@](NC(=O)Nc1ccc(C(=O)NC4CCC(C(=O)NC(CO)(CO)CO)CC4)cc1F)(C3)C2 (stereo partly drawn) [C8, N-(4-((1,3-Dihydroxy-2-(hydroxymethyl)propan-2-yl)carbamoyl)cyclohexyl)-4-(3-((1r,3R,5S,7r)-3,5-dimethyladamantan-1-yl)ureido)-3-fluorobenzamide]  7.653
4. C[C@]12C[C@@H]3C[C@](C)(C1)C[C@@](NC(=O)Nc1ccc(CN4CCCC(C(=O)NC(CO)CO)C4)cc1F)(C3)C2 (stereo partly drawn) [D7, N-(1,3-Dihydroxypropan-2-yl)-1-(4-(3-((1r,3R,5S,7r)-3,5-dimethyladamantan-1-yl)ureido)-3-fluorobenzyl)piperidine-3-carboxamide]  7.008
5. C[C@]12C[C@@H]3C[C@](C)(C1)C[C@@](NC(=O)Nc1ccc(CN4CCCC(C(=O)N(CCO)CCO)C4)cc1F)(C3)C2 (stereo partly drawn) [D5, 1-(4-(3-((1r,3R,5S,7r)-3,5-Dimethyladamantan-1-yl)ureido)-3-fluorobenzyl)-N,N-bis(2-hydroxyethyl)piperidine-3-carboxamide]  6.879
6. CC(=O)N1CCCN(C(=O)C2CCCN(C(=O)c3ccc(NC(=O)N[C@@]45C[C@@H]6C[C@@](C)(C[C@@](C)(C6)C4)C5)c(F)c3)C2)CC1 (stereo partly drawn) [F1, 1-(4-(3-(4-Acetyl-1,4-diazepane-1-carbonyl)piperidine-1-carbonyl)-2-fluorophenyl)-3-((1r,3R,5S,7r)-3,5-dimethyladamantan-1-yl)urea]  6.801
7. CC(O)CNC(=O)C1CCCN(C(=O)c2ccc(NC(=O)N[C@]34C[C@@H]5C[C@@](C)(C[C@@](C)(C5)C3)C4)c(F)c2)C1 (stereo partly drawn) [B3, 1-(4-(3-((1r,3R,5S,7S)-3,5-Dimethyladamantan-1-yl)ureido)-3-fluorobenzoyl)-N-(2-hydroxypropyl)piperidine-3-carboxamide]  6.779
8. C[C@]12C[C@@H]3C[C@](C)(C1)C[C@@](NC(=O)Nc1ccc(CN4CCCC(C(N)=O)C4)cc1F)(C3)C2 (stereo partly drawn) [D1, 1-(4-(3-((1r,3R,5S,7r)-3,5-Dimethyladamantan-1-yl)ureido)-3-fluorobenzyl)piperidine −3-carboxamide]  6.464
9. C[C@]12C[C@@H]3C[C@](C)(C1)C[C@@](NC(=O)Nc1ccc(CN4CCC(C(=O)NC(CO)(CO)CO)CC4)cc1F)(C3)C2 [E4, N-(1,3-Dihydroxy-2-(hydroxymethyl)propan-2-yl)-1-(4-(3-((1r,7r)-3,5-dimethyladamantan-1-yl)ureido)-3-fluorobenzyl)piperidine-4-carboxamide]  6.459
10. C[C@]12C[C@@H]3C[C@](C)(C1)C[C@@](NC(=O)Nc1ccc(C(=O)N4CCC(C(=O)NCCO)CC4)cc1F)(C3)C2 [A2, 1-(4-(3-((1r,3R,5S,7r)-3,5-Dimethyladamantan-1-yl)ureido)-3-fluorobenzoyl)-N-(2-hydroxyethyl)piperidine-4-carboxamide]  6.203
11. C[C@]12C[C@@H]3C[C@](C)(C1)C[C@@](NC(=O)Nc1ccc(CN4CCCC(C(=O)NCCO)C4)cc1F)(C3)C2 (stereo partly drawn) [D6, 1-(4-(3-((1r,3R,5S,7r)-3,5-Dimethyladamantan-1-yl)ureido)-3-fluorobenzyl)-N-(2-hydroxyethyl)piperidine-3-carboxamide]  6.145
12. CC(O)CNC(=O)C1CCCN(Cc2ccc(NC(=O)N[C@@]34C[C@@H]5C[C@@](C)(C[C@@](C)(C5)C3)C4)c(F)c2)C1 (stereo partly drawn) [D4, 1-(4-(3-((1r,3R,5S,7r)-3,5-Dimethyladamantan-1-yl)ureido)-3-fluorobenzyl)-N-(2-hydroxypropyl)piperidine-3-carboxamide]  6.119
13. C[C@]12C[C@@H]3C[C@](C)(C1)C[C@@](NC(=O)Nc1ccc(C(=O)NC4CCC(C(=O)N(CCO)CCO)CC4)cc1F)(C3)C2 (stereo partly drawn) [C5, N-(4-(Bis(2-hydroxyethyl)carbamoyl)cyclohexyl)-4-(3-((1r,3R,5S,7r)-3,5-dimethyladamantan-1-yl)ureido)-3-fluorobenzamide]  5.869
14. C[C@]12C[C@@H]3C[C@](C)(C1)C[C@@](NC(=O)Nc1ccc(C(=O)NC4CCC(C(N)=O)CC4)cc1F)(C3)C2 (stereo partly drawn) [C6, N-(4-Carbamoylcyclohexyl)-4-(3-((1r,3R,5S,7r)-3,5-dimethyladamantan-1-yl)ureido)-3-fluorobenzamide]  5.746
15. CC(O)CNC(=O)C1CCN(C(=O)c2ccc(NC(=O)N[C@@]34C[C@@H]5C[C@@](C)(C[C@@](C)(C5)C3)C4)c(F)c2)CC1 (stereo partly drawn) [A3, 1-(4-(3-((1r,3R,5S,7r)-3,5-Dimethyladamantan-1-yl)ureido)-3-fluorobenzoyl)-N-(2-hydroxypropyl)piperidine-4-carboxamide]  5.708
16. CCN(CC)C(=O)C1CCCN(C(=O)c2ccc(NC(=O)N[C@]34C[C@@H]5C[C@@](C)(C[C@@](C)(C5)C3)C4)c(F)c2)C1 (stereo partly drawn) [B1, 1-(4-(3-((1r,3R,5S,7S)-3,5-Dimethyladamantan-1-yl)ureido)-3-fluorobenzoyl)-N,N-diethylpiperidine-3-carboxamide]  5.617
17. C=C(C)C(=O)N1CCC(CC(=O)N2CCCN(C(=O)c3ccc(NC(=O)N[C@@]45C[C@@H]6C[C@@](C)(C[C@@](C)(C6)C4)C5)cc3)CC2)CC1 [H3, 1-((1r,3R,5S,7r)-3,5-Dimethyladamantan-1-yl)-3-(4-(4-(2-(1-methacryloylpiperidin-4-yl)acetyl)-1,4-diazepane-1-carbonyl)phenyl)urea]  5.530
18. CC(O)CNC(=O)C1CCC(NC(=O)c2ccc(NC(=O)N[C@@]34C[C@@H]5C[C@@](C)(C[C@@](C)(C5)C3)C4)c(F)c2)CC1 (stereo partly drawn) [C4, 4-(3-((1r,3R,5S,7r)-3,5-Dimethyladamantan-1-yl)ureido)-3-fluoro-N-(4-((2-hydroxypropyl)carbamoyl)cyclohexyl)benzamide]  5.438
19. CN(C)C(=O)C1CCCN(Cc2ccc(NC(=O)N[C@@]34C[C@@H]5C[C@@](C)(C[C@@](C)(C5)C3)C4)c(F)c2)C1 (stereo partly drawn) [D2, 1-(4-(3-((1r,3R,5S,7r)-3,5-Dimethyladamantan-1-yl)ureido)-3-fluorobenzyl)-N,N-dimethylpiperidine-3-carboxamide]  5.354
20. C[C@]12C[C@@H]3C[C@](C)(C1)C[C@@](NC(=O)Nc1ccc(CN4CCC(C(=O)NC(CO)CO)CC4)cc1F)(C3)C2 [E3, N-(1,3-Dihydroxypropan-2-yl)-1-(4-(3-((1r,7r)-3,5-dimethyladamantan-1-yl)ureido)-3-fluorobenzyl)piperidine-4-carboxamide]  5.090
21. CCC(C)C(=O)N1CCCN(C(=O)C2CCCN(Cc3ccc(NC(=O)N[C@@]45C[C@@H]6C[C@@](C)(C[C@@](C)(C6)C4)C5)c(F)c3)C2)CC1 (stereo partly drawn) [G2, 1-((1r,3R,5S,7r)-3,5-Dimethyladamantan-1-yl)-3-(2-fluoro-4-((3-(4-(2-methylbutanoyl) −1,4-diazepane-1-carbonyl)piperidin-1-yl)methyl)phenyl)urea]  4.986
22. C[C@]12C[C@@H]3C[C@](C)(C1)C[C@@](NC(=O)Nc1ccc(CN4CCCN(C(=O)CC5CCN(CCO)CC5)CC4)cc1F)(C3)C2 [I5, 1-((1r,3R,5S,7r)-3,5-Dimethyladamantan-1-yl)-3-(2-fluoro-4-((4-(2-(1-(2-hydroxyethyl)piperidin-4-yl)acetyl)-1,4-diazepan-1-yl)methyl)phenyl)urea]  4.937
23. CC(CN(C)C)N1CCC(CC(=O)N2CCCN(C(=O)c3ccc(NC(=O)N[C@@]45C[C@@H]6C[C@@](C)(C[C@@](C)(C6)C4)C5)c(F)c3)CC2)CC1 (stereo partly drawn) [H4, 1-((1r,3R,5S,7r)-3,5-Dimethyladamantan-1-yl)-3-(4-(4-(2-(1-(1-(dimethylamino)propan-2-yl)piperidin-4-yl)acetyl)-1,4-diazepane-1-carbonyl)-2-fluorophenyl)urea]  3.920
24. CC(O)CNC(=O)C1CCN(Cc2ccc(NC(=O)N[C@@]34C[C@@H]5C[C@@](C)(C[C@@](C)(C5)C3)C4)c(F)c2)CC1 (stereo partly shown) [E2, 1-(4-(3-((1r,7r)-3,5-Dimethyladamantan-1-yl)ureido)-3-fluorobenzyl)-N-(2-hydroxypropyl)piperidine-4-carboxamide]  3.267
25. CC(C)(C)OC(=O)N1CCN(CCNC(=O)C2CCC(NC(=O)c3ccc(NC(=O)N[C@@]45C[C@@H]6C[C@@](C)(C[C@@](C)(C6)C4)C5)c(F)c3)CC2)CC1 (stereo partly drawn) [C1, Tert-butyl-4-(2-(4-(4-(3-((1r,3R,5S,7r)-3,5-dimethyladamantan-1-yl)ureido)-3-fluorobenzamido)cyclohexane-1-carboxamido)ethyl)piperazine-1-carboxylate]  2.272
